In publication PMC12155096 (International Journal of Molecular Sciences, 2025):
Like-named read-outs stand apart in the source and are kept apart here.

Assays:
human CYP2D6 [1] = biological target: T1, human CYP2D6 (Homo sapiens, UniProt P10635); assay: P450-Glo CYP2D6 inhibition qHTS
human CYP1A2 [2] = biological target: T2, human CYP1A2 (Homo sapiens, UniProt P05177); assay: biochemical
T2 sequence (P05177 1-516): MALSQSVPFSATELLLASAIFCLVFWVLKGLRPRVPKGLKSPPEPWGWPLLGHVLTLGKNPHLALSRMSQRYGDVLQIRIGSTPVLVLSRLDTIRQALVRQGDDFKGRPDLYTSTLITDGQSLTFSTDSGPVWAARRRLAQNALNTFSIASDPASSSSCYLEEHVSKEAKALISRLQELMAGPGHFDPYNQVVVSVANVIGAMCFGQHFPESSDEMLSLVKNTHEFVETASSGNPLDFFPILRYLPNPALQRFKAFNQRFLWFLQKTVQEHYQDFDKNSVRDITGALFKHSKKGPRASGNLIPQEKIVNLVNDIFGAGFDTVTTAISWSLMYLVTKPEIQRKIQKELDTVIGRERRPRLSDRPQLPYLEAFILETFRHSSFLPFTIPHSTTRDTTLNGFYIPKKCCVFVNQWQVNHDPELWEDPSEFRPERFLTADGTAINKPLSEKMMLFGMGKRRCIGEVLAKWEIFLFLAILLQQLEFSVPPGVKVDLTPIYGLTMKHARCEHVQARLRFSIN

human CYP2C19 [3] = biological target: T3, human CYP2C19 (Homo sapiens, UniProt P33261); conditions: for CYP2C19 Efficacy (in parenthesis): human
T3 sequence (P33261 whole entry): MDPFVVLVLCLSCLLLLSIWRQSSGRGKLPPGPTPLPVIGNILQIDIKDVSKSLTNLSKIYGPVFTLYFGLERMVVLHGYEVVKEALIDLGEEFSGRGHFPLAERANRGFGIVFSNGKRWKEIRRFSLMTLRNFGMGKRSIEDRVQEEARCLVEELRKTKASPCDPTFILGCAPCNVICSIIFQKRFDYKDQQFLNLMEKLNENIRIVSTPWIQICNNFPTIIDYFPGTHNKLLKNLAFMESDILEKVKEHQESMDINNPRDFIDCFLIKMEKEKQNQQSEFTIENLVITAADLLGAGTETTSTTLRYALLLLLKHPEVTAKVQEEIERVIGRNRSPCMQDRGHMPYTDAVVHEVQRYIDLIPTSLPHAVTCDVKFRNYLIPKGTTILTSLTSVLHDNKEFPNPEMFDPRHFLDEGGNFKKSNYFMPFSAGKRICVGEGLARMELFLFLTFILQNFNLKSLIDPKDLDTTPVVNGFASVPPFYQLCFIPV

CYP3A4 [4] = biological target: T4, CYP3A4 (Homo sapiens, UniProt P08684); assay: biochemical; conditions: for IC50: CYP3A4 IC50 (half-maximal inhibitory concentration)
T4 sequence (P08684 whole entry): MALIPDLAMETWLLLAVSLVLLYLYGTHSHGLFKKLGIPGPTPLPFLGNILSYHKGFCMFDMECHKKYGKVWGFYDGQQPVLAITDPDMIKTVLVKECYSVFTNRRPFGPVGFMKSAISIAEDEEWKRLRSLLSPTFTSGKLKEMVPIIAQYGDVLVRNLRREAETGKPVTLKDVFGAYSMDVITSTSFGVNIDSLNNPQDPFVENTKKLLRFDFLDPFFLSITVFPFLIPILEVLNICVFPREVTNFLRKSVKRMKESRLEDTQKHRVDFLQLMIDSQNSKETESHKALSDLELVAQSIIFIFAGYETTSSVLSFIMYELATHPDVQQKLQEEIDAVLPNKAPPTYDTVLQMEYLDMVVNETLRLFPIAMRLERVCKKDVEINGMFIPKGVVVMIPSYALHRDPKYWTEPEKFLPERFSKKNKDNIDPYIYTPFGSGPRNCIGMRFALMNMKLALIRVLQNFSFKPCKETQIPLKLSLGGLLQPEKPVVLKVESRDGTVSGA

human CYP2C9 [5] = biological target: T5, human CYP2C9 (Homo sapiens, UniProt P11712); assay: P450-Glo CYP2C9 inhibition qHTS
T5 sequence (P11712 whole entry): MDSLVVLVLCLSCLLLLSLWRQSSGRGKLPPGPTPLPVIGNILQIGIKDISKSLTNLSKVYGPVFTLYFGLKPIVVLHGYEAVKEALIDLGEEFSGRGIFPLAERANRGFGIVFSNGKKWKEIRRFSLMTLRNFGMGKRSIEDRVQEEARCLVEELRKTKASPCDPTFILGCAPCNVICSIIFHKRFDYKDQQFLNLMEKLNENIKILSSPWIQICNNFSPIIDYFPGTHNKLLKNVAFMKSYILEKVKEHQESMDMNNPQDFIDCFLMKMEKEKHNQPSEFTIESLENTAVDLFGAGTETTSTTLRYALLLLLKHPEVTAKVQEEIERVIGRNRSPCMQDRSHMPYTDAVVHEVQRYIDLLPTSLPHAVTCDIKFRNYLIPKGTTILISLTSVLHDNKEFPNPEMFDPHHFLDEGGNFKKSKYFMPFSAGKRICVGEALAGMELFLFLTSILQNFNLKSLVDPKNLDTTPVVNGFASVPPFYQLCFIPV

human CYP2C19 [6] = biological target: T3, human CYP2C19; assay: P450-Glo CYP2C19 inhibition qHTS
human CYP2C19 [7] = biological target: T3, human CYP2C19; assay: biochemical
[8] = biological target: Photinus pyralis (firefly) luciferase (Photinus pyralis, UniProt P08659); assay: biochemical; format: biochemical
Sequence of Photinus pyralis (firefly) luciferase (P08659 whole entry): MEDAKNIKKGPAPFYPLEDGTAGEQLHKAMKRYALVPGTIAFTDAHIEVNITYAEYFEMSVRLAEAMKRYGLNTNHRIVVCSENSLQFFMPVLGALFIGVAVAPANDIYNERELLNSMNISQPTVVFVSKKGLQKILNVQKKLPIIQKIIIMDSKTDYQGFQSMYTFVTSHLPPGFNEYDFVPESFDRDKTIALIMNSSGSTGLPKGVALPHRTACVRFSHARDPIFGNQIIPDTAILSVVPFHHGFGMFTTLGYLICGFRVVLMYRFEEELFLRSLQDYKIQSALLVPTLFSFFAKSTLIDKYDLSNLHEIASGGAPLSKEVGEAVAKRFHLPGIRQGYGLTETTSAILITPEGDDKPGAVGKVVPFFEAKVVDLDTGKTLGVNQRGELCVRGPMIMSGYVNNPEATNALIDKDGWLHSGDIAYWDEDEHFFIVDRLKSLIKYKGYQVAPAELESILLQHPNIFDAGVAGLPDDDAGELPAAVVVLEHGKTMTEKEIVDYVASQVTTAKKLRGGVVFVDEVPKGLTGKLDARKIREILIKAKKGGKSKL

human CYP1A2 [9] = biological target: T2, human CYP1A2
human CYP2C9 [10] = biological target: T5, human CYP2C9; assay: biochemical
human CYP2D6 [11] = biological target: T1, human CYP2D6; assay: biochemical
CYP3A4 [12] = biological target: T4, CYP3A4
human CYP2D6 [13] = biological target: T1, human CYP2D6; conditions: for CYP2D6 Efficacy (in parenthesis): human
human CYP2C9 [14] = biological target: T5, human CYP2C9; conditions: human
[15] = CYP2C19 IC50 (half-maximal inhibitory concentration)
[16] = CYP1A2 IC50 (half-maximal inhibitory concentration)
[17] = CYP2C9 IC50 (half-maximal inhibitory concentration)
[18] = CYP2D6 IC50 (half-maximal inhibitory concentration)

T1 sequence (P10635 whole entry): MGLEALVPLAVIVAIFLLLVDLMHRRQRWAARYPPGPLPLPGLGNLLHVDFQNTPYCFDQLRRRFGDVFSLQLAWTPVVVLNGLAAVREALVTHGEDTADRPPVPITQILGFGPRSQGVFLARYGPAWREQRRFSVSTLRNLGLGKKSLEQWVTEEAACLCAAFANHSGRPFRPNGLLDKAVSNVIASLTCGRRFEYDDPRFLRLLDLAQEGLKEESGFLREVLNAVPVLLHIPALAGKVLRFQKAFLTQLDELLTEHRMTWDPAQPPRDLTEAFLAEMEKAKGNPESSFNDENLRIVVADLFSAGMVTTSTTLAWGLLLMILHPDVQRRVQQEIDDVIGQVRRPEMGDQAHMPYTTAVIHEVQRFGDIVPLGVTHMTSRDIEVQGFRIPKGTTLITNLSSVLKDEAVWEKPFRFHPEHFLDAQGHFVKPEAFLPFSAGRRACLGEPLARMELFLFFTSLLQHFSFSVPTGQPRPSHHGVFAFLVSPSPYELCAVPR

Row | SMILES | Luciferase IC50 (half-maximal inhibitory concentration) [8] | IC50 (human CYP2C19 [7]; [15]) | CYP1A2 Efficacy (in parenthesis) (human CYP1A2 [9]; human) | IC50 (human CYP1A2 [2]; [16]) | CYP2C9 Efficacy (in parenthesis) (human CYP2C9 [14]) | CYP2C19 Efficacy (in parenthesis) (human CYP2C19 [3]) | IC50 (CYP3A4 [4]) | CYP3A4 Efficacy (in parenthesis) (CYP3A4 [12]) | CYP2D6 Efficacy (in parenthesis) (human CYP2D6 [13]) | IC50 (human CYP2C9 [10]; [17]) | IC50 (human CYP2D6 [11]; [18]) | other results
1 | CC(C)(c1ccccc1)c1ccccc1 [2,2-Diphenylpropane] | – | – | – | – | – | – | – | – | – | – | – | CYP2D6 AC50 (half-maximal activity concentration) (human CYP2D6 [1]): Inconclusive inhibitor; AC50 (human CYP1A2 [2]): 58.8 µM; CYP2C19 AC50 (half-maximal activity concentration) (human CYP2C19 [3]): Inactive; AC50 (CYP3A4 [4]): 34.4 ± 11.7 µM; CYP2C9 AC50 (half-maximal activity concentration) (human CYP2C9 [5]): Inconclusive inhibitor
2 | CSC(=O)c1cccc2nnsc12 [Acibenzolar-S-methyl] | Inactive | – | – | – | – | – | – | – | – | – | – | CYP2C19 Efficacy (in parenthesis) (human CYP2C19 [6]; human): 13.25 ± 2.38 (-133 ± 9) %; IC50 (human CYP2C19 [7]): 13.2 µM; CYP1A2 Efficacy (in parenthesis) (human CYP1A2 [9]; mean ± standard deviation from three experiments, negative = inhibition): 0.77 ± 0.11 (-94 ± 7) %; CYP2D6 Efficacy (in parenthesis) (human CYP2D6 [1]; human): 34.28 ± 2.23 (-79 ± 6) %; IC50 (human CYP1A2 [2]): 0.77 µM; IC50 (human CYP2C9 [10]): 8.65 µM; IC50 (human CYP2D6 [11]): 34.3 µM; CYP3A4 IC50 (half-maximal inhibitory concentration) (CYP3A4 [12]): Inactive; CYP2C9 Efficacy (in parenthesis) (human CYP2C9 [5]; human): 8.65 ± 1.19 (-93 ± 9) %
3 | CN(CC1(C)CCCO1)S(=O)(=O)c1ccc(Cl)c(S(N)(=O)=O)c1 (stereo not shown) [Mefruside] | – | – | – | – | – | – | – | – | – | – | – | CYP2C19 AC50 (half-maximal activity concentration) (human CYP2C19 [6]): Inconclusive inhibitor; CYP1A2 AC50 (half-maximal activity concentration) (human CYP1A2 [9]): Inactive; AC50 (human CYP2C9 [10]): 13.3 ± 8.76 µM; AC50 (CYP3A4 [4]): 15.8 ± 3.61 µM; CYP2D6 AC50 (half-maximal activity concentration) (human CYP2D6 [13]): Inactive
4 | CCOP(=S)(OCC)SCn1c(=O)oc2cc(Cl)ccc21 [Phosalone] | – | 0.13 µM | 2.98 ± 0.74 (-99 ± 6) % | 2.98 µM | 1.21 ± 0.14 (-101 ± 6) % | 0.13 ± 0.05 (-148 ± 13) % | 0.3 µM | 0.3 ± 0.07 (-85 ± 5) % | 15.88 ± 2.02 (-103 ± 4) % | – | – | IC50 [8]: 49.6 µM; IC50 (human CYP2C9 [10]): 1.21 µM; IC50 (human CYP2D6 [11]): 15.9 µM
5 | Clc1ccccc1-c1nc(-c2ccncc2)no1 [Pifexole] | – | 0.74 µM | 0.39 ± 0.12 (-91 ± 4) % | 0.39 µM | 6.98 ± 3.95 (-79 ± 12) % | 0.74 ± 0.41 (-105 ± 12) % | 33.6 µM | 33.57 ± 4.62 (-77 ± 10) % | 20.06 ± 9.42 (-76 ± 17) % | 6.98 µM | 20.1 µM | IC50 [8]: 3.23 µM
6 | CCNP(=S)(OC)O/C(C)=C/C(=O)OC(C)C (stereo not shown) [Propetamphos] | Inactive | 0.08 µM | 2.25 ± 0.26 (-99 ± 4) % | 2.25 µM | 0.57 ± 0.11 (-102 ± 4) % | 0.08 ± 0.01 (-138 ± 6) % | 1.05 µM | 1.05 ± 0.36 (-88 ± 2) % | 28.38 ± 3.26 (-120 ± 4) % | – | – | IC50 (human CYP2C9 [10]): 0.57 µM; IC50 (human CYP2D6 [11]): 28.4 µM
7 | CCCC1COC(Cn2cncn2)(c2ccc(Cl)cc2Cl)O1 (stereo not shown) [Propiconazole] | Inactive | 0.52 µM | 24.72 ± 6.17 (-104 ± 9) % | 24.7 µM | 2.18 ± 0.37 (-104 ± 6) % | 0.52 ± 0.14 (-134 ± 10) % | 0.06 µM | 0.06 ± 0.02 (-71 ± 3) % | 37.02 ± 2.51 (-73 ± 5) % | 2.18 µM | 37 µM | –
8 | COC(=O)N(OC)c1ccccc1COc1ccn(-c2ccc(Cl)cc2)n1 [Pyraclostrobin] | – | 0.57 µM | 0.99 ± 0.24 (-102 ± 3) % | 0.99 µM | 5.35 ± 1.51 (-104 ± 6) % | 0.57 ± 0.25 (-152 ± 29) % | – | 1.31 ± 0.09 (52 ± 7) % | 32.63 ± 15.32 (-79 ± 28) % | 5.35 µM | 32.6 µM | AC50 (human CYP2C19 [7]; CYP2C19 AC50 (half-maximal activity concentration)): 0.57 µM; IC50 [8]: 56.4 µM; AC50 (human CYP1A2 [2]; CYP1A2 AC50 (half-maximal activity concentration)): 0.99 µM; AC50 (human CYP2C9 [10]; CYP2C9 AC50 (half-maximal activity concentration)): 5.35 µM; AC50 (human CYP2D6 [11]; CYP2D6 AC50 (half-maximal activity concentration)): 32.6 µM; AC50 (CYP3A4 [4]; CYP3A4 AC50 (half-maximal activity concentration)): 1.31 µM; CYP3A4 IC50 (half-maximal inhibitory concentration) (CYP3A4 [12]): 1.31 ± 0.09 (52 ± 7) µM
9 | CCc1c(C(=O)NN2CCCCC2)nn(-c2ccc(Cl)cc2Cl)c1-c1ccc(Br)cc1 [Surinabant] | – | – | – | – | – | – | – | – | – | – | – | CYP2C19 AC50 (half-maximal activity concentration) (human CYP2C19 [6]): Inconclusive inhibitor; CYP1A2 AC50 (half-maximal activity concentration) (human CYP1A2 [9]): Inactive; AC50 (human CYP2C9 [10]): 8.32 ± 1.06 µM; AC50 (CYP3A4 [4]): 4.12 ± 1.72 µM; CYP2D6 AC50 (half-maximal activity concentration) (human CYP2D6 [13]): Inactive
10 | CC(C)(C)C(O)(CCc1ccc(Cl)cc1)Cn1cncn1 (stereo not shown) [Tebuconazole] | Inactive | 0.45 µM | 31.85 ± 3.66 (-77 ± 8) % | 31.9 µM | 3.3 ± 0.22 (-104 ± 4) % | 0.45 ± 0.0 (-115 ± 9) % | 0.21 µM | 0.21 ± 0.04 (-90 ± 1) % | 34.28 ± 2.23 (-82 ± 7) % | 3.3 µM | 34.3 µM | –
11 | FC(F)C(F)(F)OCC(Cn1cncn1)c1ccc(Cl)cc1Cl (stereo not shown) [Tetraconazole] | Inactive | 0.02 µM | 6.09 ± 0.84 (-101 ± 7) % | 6.09 µM | 1.84 ± 0.12 (-114 ± 7) % | 0.02 ± 0.0 (-134 ± 5) % | 0.25 µM | 0.25 ± 0.06 (-66 ± 2) % | 12.32 ± 3.08 (-113 ± 2) % | 1.84 µM | 12.3 µM | –
12 | CCCOC/C(=N\c1ccc(Cl)cc1C(F)(F)F)n1ccnc1 [Triflumizole] | Inactive | 0.36 µM | 9.3 ± 0.63 (-102 ± 6) % | 9.3 µM | 3.92 ± 0.98 (-103 ± 3) % | 0.36 ± 0.3 (-125 ± 6) % | 0.21 µM | 0.21 ± 0.07 (-78 ± 2) % | 34.28 ± 2.23 (-99 ± 9) % | 3.92 µM | 34.3 µM | –
